Measurements as given in publication PMC4139204, “Insight into the Architecture of the NuRD Complex” (The Journal of Biological Chemistry, 2014).
Entries after “also recorded” stand apart in the source; their conditions may differ.

Assays:
RbAp48 [1] = target: T1, RbAp48 (Homo sapiens, UniProt Q09028); assay: GST pulldown of in vitro translated 35S-RbAp48 by GST-MTA1 fragments; type: binding; conditions: GST-MTA1 fusion on glutathione-Sepharose beads with in vitro translated 35S-labeled RbAp48, 2 h, 4 °C; SDS-PAGE and autoradiography
T1 construct: made in house; host or cells: insect cells
T1 sequence (Q09028 whole entry, the tested form may be a part): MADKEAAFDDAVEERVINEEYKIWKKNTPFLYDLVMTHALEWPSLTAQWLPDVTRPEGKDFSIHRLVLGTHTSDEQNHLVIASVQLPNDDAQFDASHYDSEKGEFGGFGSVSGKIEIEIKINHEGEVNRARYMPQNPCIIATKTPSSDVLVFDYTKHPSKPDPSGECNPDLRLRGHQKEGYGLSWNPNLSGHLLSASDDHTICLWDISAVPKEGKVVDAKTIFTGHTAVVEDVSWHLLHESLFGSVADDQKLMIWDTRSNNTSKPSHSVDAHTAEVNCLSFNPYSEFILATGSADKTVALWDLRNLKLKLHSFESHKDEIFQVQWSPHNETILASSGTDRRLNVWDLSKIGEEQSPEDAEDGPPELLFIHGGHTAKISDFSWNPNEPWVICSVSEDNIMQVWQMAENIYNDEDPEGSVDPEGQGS
Text: FLAG-tagged human RbAp48 (Uniprot: Q09028) was constructed by PCR and cloned into pcDNA3. MTA1 constructs (residues 1–250, 230–550, and 530–715) were generated by PCR amplification of the human gene (Uniprot: Q13330) and cloned into pcDNA3. MTA1 constructs (residues 530–635, 625–715, 643–695, and 656–686) were created by PCR amplification from codon-optimized sequences for bacterial expression (GenScript) and cloned into pGEX-6P with an N-terminal GST tag.
pcDNA3 constructs were expressed in vitro in the presence of [^35S]methionine. GST-MTA1 constructs were expressed in the BL21 strain of Escherichia coli and induced with 0.4 mM isopropyl 1-thio-β-D-galactopyranoside. The culture was incubated with shaking at 25 °C overnight, and the protein was subsequently purified by glutathione affinity chromatography. GST-H4-(1–48) was expressed and purified by glutathione affinity chromatography as described previously ([16]). Recombinant RbAp48 was expressed and purified from insect cells as described previously ([17]).
GST pulldown assays were performed by incubating equal amounts of GST or GST-MTA1 fusion proteins immobilized on glutathione-Sepharose beads (Amersham Biosciences) with in vitro translated ^35S-labeled RbAp48. The mixtures were incubated for 2 h at 4 °C and washed 5 times with binding buffer. Complexes were resolved by SDS-PAGE and visualized by autoradiography.

RbAp48 [2] = target: T1, RbAp48; assay: Isothermal titration calorimetry (ITC) of MTA1 peptides binding to RbAp48; conditions: MicroCal iTC200, 25 °C, 20 mM Tris, pH 7.5, 150 mM NaCl, MTA1 peptide (250 μM) titrated into RbAp48 (25 μM, 200 μl), 20 injections of 2 μl, single-site 1:1 fit, representative measurement, standard error from single curve fit, each titration in duplicate, read-out: dissociation constant (KD)
Procedure: pcDNA3 constructs were expressed in vitro in the presence of [^35S]methionine. […] GST-H4-(1–48) was expressed and purified by glutathione affinity chromatography as described previously ([16]). Recombinant RbAp48 was expressed and purified from insect cells as described previously ([17]).
ITC measurements were carried out at 25 °C using a MicroCal iTC200 titration calorimeter. […] The reference power was set to 2 μcal/s, and the cell was stirred continuously at 1000 rpm. The evolved heats were integrated and normalized for protein concentration.

MTA1-RbAp48 complex [3] = assay: Competition pulldown: FOG1-(1–15) peptide added to MTA1-FLAG-RbAp48 complex; type: binding, human; conditions: FLAG-RbAp48 on anti-FLAG beads; for effect of FOG1 peptide on MTA1-RbAp48 interaction: increasing amounts of FOG1-(1–15) peptide
Procedure: RbAp48 and MTA1 constructs were in vitro translated in the presence of ^35S-labeled methionine using the TNT Quick Coupled Transcription/Translation kit (Promega) according to the manufacturer's instructions. In vitro translated ^35S-labeled FLAG-RbAp48 (20 μl) was immobilized onto agarose beads conjugated to anti-FLAG (M2) antibodies (Sigma) in binding buffer (50 mM Tris, pH 7.5, 300 mM NaCl, 0.5% Triton X-100, complete protease inhibitor mixture tablet (Roche Applied Science), and 1 mM DTT). The mixture was incubated with in vitro translated ^35S-labeled-MTA1 fragments (40 μl) at 4 °C for 2 h. The beads were then washed five times with binding buffer. Anti-FLAG beads alone were used as a negative control. Complexes were resolved by SDS-PAGE and visualized by autoradiography.
(§1) The structural data provide clear evidence that histone H4 and MTA1 bind mutually exclusively to RbAp48. […] Competition-binding experiments were performed to assess whether full-length MTA1 might inhibit the interaction of RbAp48 with H3 or FOG1 peptides and to confirm that H4 and MTA1 bind mutually exclusively to RbAp48. GST-H4-(1–48) was expressed in bacteria, immobilized onto glutathione beads, and used to pull down RbAp48 in the absence and presence of full-length MTA1 (Fig. 7A). In a complementary experiment (Fig. 7B), in vitro translated FLAG-RbAp48 was immobilized on anti-FLAG beads and used to pull down MTA1 in the absence and presence of histone H4-(1–48).
(§2) FIGURE 7. […] A, pulldown showing the binding of in vitro translated ^35S-labeled RbAp48 to GST-histone H4-(1–48) (immobilized on glutathione beads) in the absence and presence of in vitro translated MTA1. B, pulldown showing the binding of in vitro translated ^35S-labeled MTA1 to FLAG-RbAp48 (immobilized on anti-FLAG beads) in the absence and presence of histone H4-(1–48). C, pulldown assays showing the effect of adding increasing amounts of FOG1-(1–15) peptide to a complex formed between in vitro translated ^35S-labeled FLAG-RbAp48 (immobilized on anti-FLAG beads) and in vitro translated ^35S-labeled full-length MTA1 or MTA1-(530–715). […]

RbAp46/48 = conditions: GST pulldown; ref [47]; cited from earlier work
Text: Previous studies using GST pulldown assays have mapped the domains that mediate the interaction between MTA1/2 and RbAp46/48. […] Our crystallographic and biochemical data reveal that a short motif near the C-terminal end of MTA1 is able to bind ind ...

[4] = tested on: RbAp46 mutant (E356Q, D357N, E359Q, D360N, L30Y); conditions: D360N and L30Y; cited from earlier work
MTA1-RbAp48 complex [5] = assay: Competition pulldown: FLAG-RbAp48 pulls down MTA1 in absence and presence of histone H4-(1–48); type: binding, human; conditions: FLAG-RbAp48 on anti-FLAG beads, in vitro translated 35S-labeled MTA1, absence and presence of histone H4-(1–48)
Procedure: as §1, §2

RbAp46 = conditions: for RbAp46; ref [16]; cited from earlier work

CC[C@H](C)[C@H](NC(=O)[C@H](CCCCN)NC(=O)[C@H](CCCNC(=N)N)NC(=O)[C@@H](NC(=O)[C@H](CCC(=O)O)NC(=O)[C@H](CCC(=O)O)NC(=O)[C@@H](NC(=O)[C@H](C)NC(=O)[C@H](CCSC)NC(=O)[C@H](Cc1ccc(O)cc1)NC(=O)[C@H](Cc1ccccc1)NC(=O)[C@@H](NC(=O)[C@H](CC(=O)O)NC(C)=O)C(C)C)[C@@H](C)O)[C@@H](C)O)C(=O)N[C@@H](CCCNC(=N)N)C(=O)N[C@@H](CCCCN)C(=O)N[C@@H](CC(C)C)C(=O)N[C@@H](CC(C)C)C(=O)N[C@@H](CO)C(=O)N[C@@H](CO)C(=O)N[C@@H](CO)C(=O)N[C@@H](CCC(=O)O)C(=O)N[C@H](C(=O)N[C@@H](CCCCN)C(=O)N[C@@H](CCCNC(=N)N)C(=O)N[C@@H](C)C(=O)N[C@@H](C)C(=O)N[C@@H](CCCNC(=N)N)C(=O)N[C@@H](CCCNC(=N)N)C(=O)N1CCC[C@H]1C(=O)N[C@@H](Cc1ccc(O)cc1)C(=O)N[C@@H](CCCCN)C(N)=O)[C@@H](C)O [MTA1-(656–686)]
binding to RbAp48 in GST pulldown (RbAp48 [1]): sufficient to bind RbAp48; also recorded: shortest fragment of MTA1 capable of pulling down in vitro translated RbAp48

Ac-KLLSSSETKRAARRPYKPIALRQSQA-NH2 [MTA1-(670–695)]
Kd (RbAp48 [2]): 50 ± 7 nM

FOG1-(1–15): peptide (residues 1–15) derived from the co-regulator FOG1
effect of FOG1 peptide on MTA1-RbAp48 interaction (MTA1-RbAp48 complex [3]; C-terminal MTA1 fragment (residues 530–715)): The same result was observed
competition for binding to RbAp48 (Fig. 7 title) (MTA1-RbAp48 complex [3]; Fig. 7, full-length MTA1 or MTA1-(530–715)): do not compete for binding to RbAp48
effect of FOG1 peptide on MTA1-RbAp48 interaction (MTA1-RbAp48 complex [3]; full-length MTA1): unable to interfere with the MTA1-RbAp48 interaction

GATA-type zinc finger domain of MTA1 (residues 392–448): predicted GATA-type zinc finger domain of MTA1 (ACESCYTTQSYQWYSWGPPNMQCRLCASCWTYWKKYGGLKMPTRLDGERPGPNRSNM; GATA-type zinc finger; UniProt Q13330 392-448, looked up, fragment)
recognition of RbAp46/48 (RbAp46/48): sufficient to recognize RbAp46/48

GST-tagged H4 (residues 1–48): GST-H4-(1–48) expressed in bacteria and purified by glutathione affinity chromatography
effect of RbAp46 mutations on interaction with H4 [4]: abrogate its interaction

H4-(1–48): histone H4 residues 1–48
competition of histone H4 with MTA1 for RbAp48 (MTA1-RbAp48 complex [5]): compete for the same binding surface on RbAp48
Kd (RbAp46): 1000 nM
